Experimental data as given in patent publication US9376396B2, “Acylaminocycloalkyl compounds suitable for treating disorders that respond to modulation of dopamine D3 receptor” (AbbVie Deutschland GmbH & Co. KG, priority 2012, dated 2016).

Assays:
[1] = Determination of the microsomal half-life / microsomal clearance, rat; format: in vitro ADME; conditions: rat liver microsomes, 0.5 μM test substance, 0.25 mg microsomal protein/ml, NADPH, 37° C.
Method: (§1) The metabolic stability of the compounds of the invention was determined in the following assay.
(§2) The test substances were incubated in a concentration of 0.5 μM as follows:
(§3) 0.5 μM test substance are preincubated together with liver microsomes from different species (from rat, human or other species) (0.25 mg of microsomal protein/ml) in 0.05 M potassium phosphate buffer of pH 7.4 in microtiter plates at 37° C. for 5 min. The reaction is started by adding NADPH (1 mg/mL). After 0, 5, 10, 15, 20 and 30 min, 50 μl aliquots are removed, and the reaction is immediately stopped and cooled with the same volume of acetonitrile. The samples are frozen until analyzed. The remaining concentration of undegraded test substance is determined by MSMS. The half-life (T½) is determined from the gradient of the signal of test substance/unit time plot, it being possible to calculate the half-life of the test substance, assuming first order kinetics, from the decrease in the concentration of the compound with time. The microsomal clearance (mCl) is calculated from mCl=ln 2/T½/(content of microsomal protein in mg/ml)×1000 [ml/min/mg] (modified from references: Di, The Society for Biomoleculur Screening, 2003, 453-462; Obach, DMD, 1999 vol 27. N 11, 1350-1359).

hERG cardiac K+ channel = target: T1, hERG cardiac K+ channel (Homo sapiens, UniProt Q12809); assay: Blocking the hERG channel ([3H]dofetilide displacement); format: binding; conditions: membrane homogenate from HEK 293 cells expressing hERG
T1 construct: expressed in transfected cells; host or cells: HEK-293
T1 sequence (Q12809 whole entry): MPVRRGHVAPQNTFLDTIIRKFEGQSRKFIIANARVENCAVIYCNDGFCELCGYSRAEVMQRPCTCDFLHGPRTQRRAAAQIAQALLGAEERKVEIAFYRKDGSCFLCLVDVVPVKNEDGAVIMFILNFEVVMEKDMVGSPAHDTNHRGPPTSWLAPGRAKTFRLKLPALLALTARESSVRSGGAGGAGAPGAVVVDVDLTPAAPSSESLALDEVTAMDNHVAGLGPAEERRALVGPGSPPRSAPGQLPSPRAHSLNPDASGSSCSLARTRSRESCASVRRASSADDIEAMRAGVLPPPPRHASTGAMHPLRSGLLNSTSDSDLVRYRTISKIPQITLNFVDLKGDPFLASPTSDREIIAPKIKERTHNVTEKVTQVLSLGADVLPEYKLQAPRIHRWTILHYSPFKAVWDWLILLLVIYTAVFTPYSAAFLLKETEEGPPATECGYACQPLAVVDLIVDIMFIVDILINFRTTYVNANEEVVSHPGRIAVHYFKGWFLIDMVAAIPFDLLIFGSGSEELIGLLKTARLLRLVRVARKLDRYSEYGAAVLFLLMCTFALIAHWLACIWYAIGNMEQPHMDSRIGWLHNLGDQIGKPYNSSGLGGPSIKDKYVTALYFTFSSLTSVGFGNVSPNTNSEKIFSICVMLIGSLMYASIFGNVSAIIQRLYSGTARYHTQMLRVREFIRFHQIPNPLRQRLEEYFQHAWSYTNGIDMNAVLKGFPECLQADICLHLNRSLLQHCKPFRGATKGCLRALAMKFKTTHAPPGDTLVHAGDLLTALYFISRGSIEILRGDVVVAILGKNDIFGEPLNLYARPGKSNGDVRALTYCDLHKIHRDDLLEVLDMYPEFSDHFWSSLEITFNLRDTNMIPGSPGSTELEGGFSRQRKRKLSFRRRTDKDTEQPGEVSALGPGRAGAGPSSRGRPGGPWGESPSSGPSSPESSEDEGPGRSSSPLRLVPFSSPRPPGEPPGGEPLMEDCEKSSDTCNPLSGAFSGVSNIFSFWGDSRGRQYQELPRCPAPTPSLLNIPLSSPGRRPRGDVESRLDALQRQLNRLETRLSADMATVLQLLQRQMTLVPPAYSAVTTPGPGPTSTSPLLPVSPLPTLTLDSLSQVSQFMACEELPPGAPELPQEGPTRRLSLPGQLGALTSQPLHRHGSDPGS
Method: The binding affinity of test drugs for the hERG cardiac K^+ channel was determined by their ability to displace tritiated dofetilide (a class III antiarrhythmic drug and potent hERG blocker) in membrane homogenates from HEK-293 cells heterogeneously expressing the hERG channel. The assay was performed as previously described G. J. Diaz et al., Journal of Pharmacological and Toxicological Methods, 50 (2004), 187-199). For this, drug dilutions were prepared from 10 mM DMSO stocks and the following were added to a 96-well polystyrene plate (Perkin-Elmer Optiplate): 20 μl of assay binding buffer (for total bounds), or 1 μM astemizole (for non-specific bounds), or test drug, 50 μl of [^3H]dofetilide (20 nM, ˜80 Ci/mmol specific activity), and 130 μl of membrane homogenate from HEK 293 cells stably transfected with hERG K^+ channels (final protein concentration of 30 μg per well). The plates were incubated at ambient temperature for 45 min, aspirated onto GF/B filter plates (Perkin-Elmer), and washed with 2 ml of cold wash buffer. After allowing the plates to dry, 50 μl of scintillant (Perkin-Elmer MicroScint 20) were added to each well and the radioactivity was counted in a Perkin-Elmer Topcount NXT scintillation counter. IC50 determinations were calculated from competition curves using 6 drug concentrations, half-log apart, starting at a high concentration of 100 μM (final assay DMSO concentration=1%) using a four-parameter logistic equation. The results are given as IC50 value.

[2] = target: T2, human dopamine D3 receptors (Homo sapiens, UniProt P35462); assay: Receptor binding study, dopamine D3 receptor ([125I]-iodosulpride displacement); conditions: membranes of HEK-293 cells, 0.1 nM [125I]-iodosulpride, 25° C., 60 minutes
T2 construct: expressed in transfected cells; host or cells: HEK-293
T2 sequence (P35462 whole entry): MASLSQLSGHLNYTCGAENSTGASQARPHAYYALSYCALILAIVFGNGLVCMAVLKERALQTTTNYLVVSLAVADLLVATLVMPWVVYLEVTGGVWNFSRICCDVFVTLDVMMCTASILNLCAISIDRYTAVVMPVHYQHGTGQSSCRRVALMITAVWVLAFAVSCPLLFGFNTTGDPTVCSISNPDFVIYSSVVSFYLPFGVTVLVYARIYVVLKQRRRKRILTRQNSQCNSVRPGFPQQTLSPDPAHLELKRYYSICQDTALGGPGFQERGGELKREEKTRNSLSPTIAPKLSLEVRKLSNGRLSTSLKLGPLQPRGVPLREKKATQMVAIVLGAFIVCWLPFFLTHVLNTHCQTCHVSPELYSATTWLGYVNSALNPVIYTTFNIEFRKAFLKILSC
Method: (§4) The substance to be tested was either dissolved in methanol/Chremophor® (BASF SE) or in dimethyl sulfoxide and then diluted with water to the desired concentration.
(§5) Each assay mixture was run in triplicate. • The incubation buffer contained 50 mM tris, 120 mM NaCl, 5 mM KCl, 2 mM CaCl2, 2 mM MgCl2 and 0.1% bovine serum albumin, 10 μM quinolone and 0.1% ascorbic acid (prepared fresh daily). […] Each assay mixture was run in triplicate. • The incubation buffer contained 50 mM tris, 120 mM NaCl, 5 mM KCl, 2 mM CaCl2, 2 mM MgCl2 and 0.1% bovine serum albumin. The buffer was adjusted to pH 7.4 with HCl. c) Measurement and Analysis: • After having been incubated at 25° C. for 60 minutes, the assay mixtures were filtered through a Whatman GF/B glass fiber filter under vacuum using a cell collecting device. The filters were transferred to scintillation viols using a filter transfer system. After 4 ml of Ultima Gold® (Packard) have been added, the samples were shaken for one hour and the radioactivity was then counted in a Beta-Counter (Packard, Tricarb 2000 or 2200CA).

[3] = Determination of the microsomal half-life / microsomal clearance, human; format: in vitro ADME; conditions: human liver microsomes, 0.5 μM test substance, 0.25 mg microsomal protein/ml, NADPH, 37° C.
Method: as §1, §2, §3

[4] = target: T3, human dopamine D2L receptors (long isoform) (Homo sapiens, UniProt P14416); assay: Receptor binding study, dopamine D2L receptor ([125I]iodospiperone displacement), selectivity vs D3; conditions: selectivity ratio, HEK-293 membranes
T3 construct: expressed in transfected cells; host or cells: HEK-293
T3 sequence (P14416 whole entry, canonical isoform): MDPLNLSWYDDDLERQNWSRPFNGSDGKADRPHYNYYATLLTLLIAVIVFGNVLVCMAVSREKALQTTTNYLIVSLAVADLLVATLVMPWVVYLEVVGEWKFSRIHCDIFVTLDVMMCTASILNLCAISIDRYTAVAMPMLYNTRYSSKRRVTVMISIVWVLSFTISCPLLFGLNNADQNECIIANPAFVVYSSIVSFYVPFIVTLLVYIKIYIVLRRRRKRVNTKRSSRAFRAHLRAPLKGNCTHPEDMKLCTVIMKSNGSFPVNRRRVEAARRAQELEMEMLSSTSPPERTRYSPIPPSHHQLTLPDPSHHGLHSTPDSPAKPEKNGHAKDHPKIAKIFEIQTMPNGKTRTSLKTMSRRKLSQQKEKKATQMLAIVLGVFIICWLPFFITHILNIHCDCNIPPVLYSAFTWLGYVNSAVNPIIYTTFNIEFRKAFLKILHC
Method: as §4, §5

Row | Rat mCl [1] | Ki [2] [nM] | Human mCl [3] | D2/D3 (Ki (D2L)/Ki (D3)) [4] | Compound | IC50 (hERG cardiac K+ channel) [nM]
1 | + (+: 20-120 μl min^−1 mg^−1) | < 50 | + (+: 20-120 μl min^−1 mg^−1) | +++ (+++>50) | CC(=O)N[C@H]1CC[C@H](CCN2CCN(c3cc(CO)nc(C(C)(C)C)n3)CC2)CC1 [Compound 22, trans-N-[4-[2-[4-[2-tert-butyl-6-(hydroxymethyl)pyrimidin-4-yl]piperazin-1-yl]ethyl]cyclohexyl]acetamide] | 
2 | + (+: 20-120 μl min^−1 mg^−1) | < 50 | + (+: 20-120 μl min^−1 mg^−1) | +++ (+++>50) | CC(C)(C)c1nc(CCO)cc(N2CCN(CC[C@H]3CC[C@H](NC=O)CC3)CC2)n1 [Compound 23, trans-N-[4-[2-[4-[2-tert-butyl-6-(2-hydroxyethyl)pyrimidin-4-yl]piperazin-1-yl]ethyl]cyclohexyl]formamide] | 
3 | + (+: 20-120 μl min^−1 mg^−1) | < 50 | + (+: 20-120 μl min^−1 mg^−1) | +++ (+++>50) | COCCc1cc(N2CCN(CC[C@H]3CC[C@H](NC=O)CC3)[C@H](C)C2)nc(C(C)(C)C)n1 [Compound 24, trans-N-[4-[2-[(2R)-4-[2-tert-butyl-6-(2-methoxyethyl)pyrimidin-4-yl]-2-methyl-piperazin-1-yl]ethyl]cyclohexyl]formamide] | 
4 | + (+: 20-120 μl min^−1 mg^−1) | < 10 | + (+: 20-120 μl min^−1 mg^−1) | +++ (+++>50) | CC(=O)N[C@H]1CC[C@H](CCN2CCN(c3cc(CCO)nc(C(C)(C)C)n3)[C@@H](C)C2)CC1 [Compound 25, trans-N-[4-[2-[(3S)-4-[2-tert-butyl-6-(2-hydroxyethyl)pyrimidin-4-yl]-3-methyl-piperazin-1-yl]ethyl]cyclohexyl]acetamide] | 
5 | + (+: 20-120 μl min^−1 mg^−1) | < 50 | + (+: 20-120 μl min^−1 mg^−1) | + (+>10) | COCCc1cc(N2CCN(CCC3CC(NC=O)C3)C[C@@H]2C)nc(C(C)(C)C)n1 (stereo partly drawn) [Compound 28, N-[3-[2-[(3S)-4-[2-tert-butyl-6-(2-methoxyethyl)pyrimidin-4-yl]-3-methyl-piperazin-1-yl]ethyl]cyclobutyl]formamide] | 
6 | + (+: 20-120 μl min^−1 mg^−1) | < 50 | + (+: 20-120 μl min^−1 mg^−1) | +++ (+++>50) | CC(=O)N[C@H]1CC[C@H](CCN2CCN(c3cc(CCO)nc(C(C)(C)C)n3)[C@H](C)C2)CC1 [Compound 29, trans-N-[4-[2-[(3R)-4-[2-tert-butyl-6-(2-hydroxyethyl)pyrimidin-4-yl]-3-methyl-piperazin-1-yl]ethyl]cyclohexyl]acetamide] | 
7 | + (+: 20-120 μl min^−1 mg^−1) | < 50 | + (+: 20-120 μl min^−1 mg^−1) | ++ (++>20) | COCCc1cc(N2CCN(CC[C@H]3C[C@H](NC(C)=O)C3)C[C@@H]2C)nc(C(C)(C)C)n1 [Compound 30, trans-N-[3-[2-[(3S)-4-[2-tert-butyl-6-(2-methoxyethyl)pyrimidin-4-yl]-3-methyl-piperazin-1-yl]ethyl]cyclobutyl]acetamide] | 
8 | + (+: 20-120 μl min^−1 mg^−1) | < 10 | + (+: 20-120 μl min^−1 mg^−1) | + (+>10) | COCCc1cc(N2CCN(CC[C@H]3C[C@@H](NC(C)=O)C3)C[C@@H]2C)nc(C(C)(C)C)n1 [Compound 31, cis-N-[3-[2-[(3S)-4-[2-tert-butyl-6-(2-methoxyethyl)pyrimidin-4-yl]-3-methyl-piperazin-1-yl]ethyl]cyclobutyl]acetamide] | 
9 | ∘ (∘: >120 μl min^−1 mg^−1) | < 10 | + (+: 20-120 μl min^−1 mg^−1) | +++ (+++>50) | CC(=O)N[C@H]1CC[C@H](CCN2CCN(c3cc(CCOC(F)F)nc(C(C)(C)C)n3)[C@@H](C)C2)CC1 [Compound 32, trans-N-[4-[2-[(3S)-4-[2-tert-butyl-6-[2-(difluoromethoxy)ethyl]pyrimidin-4-yl]-3-methyl-piperazin-1-yl]ethyl]cyclohexyl]acetamide] | 

Further lines, the compound ahead of its results:

Row | Compound | Rat mCl [1] | Ki [2] [nM] | Human mCl [3] | D2/D3 (Ki (D2L)/Ki (D3)) [4] | IC50 (hERG cardiac K+ channel) [nM]
10 | COCCc1cc(N2CCN(CC[C@H]3CC[C@H](NC(C)=O)CC3)CC2)nc(C(C)(C)C)n1 [Compound 1, trans-N-[4-(2-{4-[2-tert-Butyl-6-(2-methoxy-ethyl)-pyrimidin-4-yl]-piperazin-1-yl}-ethyl)-cyclohexyl]-acetamide] | + (+: 20-120 μl min^−1 mg^−1) | < 10 | + (+: 20-120 μl min^−1 mg^−1) | +++ (+++>50) | > 10000
11 | COCc1cc(N2CCN(CC[C@H]3CC[C@H](NC(C)=O)CC3)CC2)nc(C(C)(C)C)n1 [Compound 2, trans-N-[4-(2-{4-[2-tert-butyl-6-(methoxymethyl)-pyrimidin-4-yl]-piperazin-1-yl}-ethyl)-cyclohexyl]-acetamide] | + (+: 20-120 μl min^−1 mg^−1) | < 10 | + (+: 20-120 μl min^−1 mg^−1) | +++ (+++>50) | > 10000
12 | COCCc1cc(N2CCN(CC[C@H]3CC[C@H](NC(C)=O)CC3)C[C@H]2C)nc(C(C)(C)C)n1 [Compound 6, trans-N-[4-(2-{(3R)-4-[2-tert-Butyl-6-(2-methoxy-ethyl)-pyrimidin-4-yl]-3-methyl-piperazin-1-yl}-ethyl)-cyclohexyl]-acetamide] | ∘ (∘: >120 μl min^−1 mg^−1) | < 10 | + (+: 20-120 μl min^−1 mg^−1) | +++ (+++>50) | > 10000
13 | COCCc1cc(N2CCN(CC[C@H]3CC[C@@H](NC(C)=O)CC3)[C@@H](C)C2)nc(C(C)(C)C)n1 [Compound 7, cis-N-[4-(2-{(2S)-4-[2-tert-Butyl-6-(2-methoxy-ethyl)-pyrimidin-4-yl]-2-methyl-piperazin-1-yl}-ethyl)-cyclohexyl]-acetamide] | + (+: 20-120 μl min^−1 mg^−1) | < 10 | + (+: 20-120 μl min^−1 mg^−1) | +++ (+++>50) | > 10000
14 | COCCc1cc(N2CCN(CC[C@H]3CC[C@H](NC(C)=O)CC3)[C@@H](C)C2)nc(C(C)(C)C)n1 [Compound 9, trans-N-[4-(2-{(2S)-4-[2-tert-Butyl-6-(2-methoxy-ethyl)-pyrimidin-4-yl]-2-methyl-piperazin-1-yl}-ethyl)-cyclohexyl]-acetamide] | + (+: 20-120 μl min^−1 mg^−1) | < 10 | + (+: 20-120 μl min^−1 mg^−1) | +++ (+++>50) | > 10000
15 | trans-N-[4-[2-[4-(2-tert-butyl-6-tetrahydrofuran-3-yl-pyrimidin-4-yl)piperazin-1-yl]ethyl]cyclohexyl]formamide [Compound 27] | + (+: 20-120 μl min^−1 mg^−1) | < 10 | + (+: 20-120 μl min^−1 mg^−1) | +++ (+++>50) | 
